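GI50: concentration for 50% inhibition of growth. The concentration for full growth arrest is given as TGI.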
How the values were obtained:
Assay in all cases: DTP human tumour cell line panel, 384-well format; in the data active means GI50 below about 0.43 µM; inactive means the rest
786-0 renal = system: 786-0 renal
A498 renal = system: A498 renal
A549 NSCLC = system: A549 NSCLC
ACHN renal = system: ACHN renal
BT-549 breast = system: BT-549 breast
CCRF-CEM leukemia = system: CCRF-CEM leukemia
COLO 205 colon = system: COLO 205 colon
EKVX NSCLC = system: EKVX NSCLC
HCC-2998 colon = system: HCC-2998 colon
HCT-116 colon = system: HCT-116 colon
HCT-15 colon = system: HCT-15 colon
HL-60(TB) leukemia = system: HL-60(TB) leukemia
HOP-92 NSCLC = system: HOP-92 NSCLC
HS 578T breast = system: HS 578T breast
HT29 colon = system: HT29 colon
IGROV1 ovarian = system: IGROV1 ovarian
KM12 colon = system: KM12 colon
M14 melanoma = system: M14 melanoma
MALME-3M melanoma = system: MALME-3M melanoma
MCF7 breast = system: MCF7 breast
MDA-MB-231 breast = system: MDA-MB-231 breast
MDA-MB-435 melanoma = system: MDA-MB-435 melanoma
MDA-MB-468 breast = system: MDA-MB-468 breast
MOLT-4 leukemia = system: MOLT-4 leukemia
NCI-H226 lung = system: NCI-H226 lung
NCI-H23 lung = system: NCI-H23 lung
NCI-H460 NSCLC = system: NCI-H460 NSCLC
NCI-H522 lung = system: NCI-H522 lung
NCI/ADR-RES ovarian = system: NCI/ADR-RES ovarian
OVCAR-3 ovarian = system: OVCAR-3 ovarian
OVCAR-4 ovarian = system: OVCAR-4 ovarian
OVCAR-5 ovarian = system: OVCAR-5 ovarian
OVCAR-8 ovarian = system: OVCAR-8 ovarian
PC-3 prostate = system: PC-3 prostate
SF-268 CNS = system: SF-268 CNS
SF-295 CNS = system: SF-295 CNS
SF-539 CNS = system: SF-539 CNS
SK-MEL-2 melanoma = system: SK-MEL-2 melanoma
SK-MEL-28 melanoma = system: SK-MEL-28 melanoma
SK-OV-3 ovarian = system: SK-OV-3 ovarian
SNB-75 CNS = system: SNB-75 CNS
SR leukemia = system: SR leukemia
SW-620 colon = system: SW-620 colon
T-47D breast = system: T-47D breast
U251 glioblastoma = system: U251 glioblastoma
UACC-257 melanoma = system: UACC-257 melanoma
UACC-62 melanoma = system: UACC-62 melanoma

C[C@@H]1CN(C(=O)c2ccc(NC(=O)c3cc(O[C@H](C)c4c(Cl)ccc(F)c4Cl)c(N)nn3)cc2)C[C@H](C)N1
3.99 µM: TGI (SF-539 CNS)
5 µM: TGI (A549 NSCLC)
6.48 µM: TGI (M14 melanoma)
4.7 µM: TGI (OVCAR-5 ovarian)
2.59 µM: TGI (HT29 colon)
16.2 µM: TGI (SK-OV-3 ovarian)
4.27 µM: TGI (BT-549 breast) | TGI (SK-MEL-2 melanoma)
5.93 µM: TGI (EKVX NSCLC)
2.89 µM: TGI (UACC-62 melanoma)
2.42 µM: TGI (HOP-92 NSCLC)
7.2 µM: TGI (OVCAR-3 ovarian)
28.2 µM: TGI (NCI/ADR-RES ovarian)
3.7 µM: TGI (MDA-MB-468 breast)
5.81 µM: TGI (SF-295 CNS)
7.16 µM: TGI (NCI-H522 lung) | TGI (PC-3 prostate)
11.1 µM: TGI (ACHN renal)
5.52 µM: TGI (MDA-MB-231 breast)
3.07 µM: TGI (UACC-257 melanoma)
3.73 µM: TGI (NCI-H460 NSCLC)
inactive: GI50 (786-0 renal) 1.86 µM | GI50 (A498 renal) 2.04 µM | GI50 (A549 NSCLC) 1.45 µM | GI50 (ACHN renal) 3.05 µM | GI50 (BT-549 breast) 2.39 µM | GI50 (COLO 205 colon) 1.33 µM | GI50 (EKVX NSCLC) 1.52 µM | GI50 (HCC-2998 colon) 2.14 µM | GI50 (HCT-116 colon) 1.41 µM | GI50 (HCT-15 colon) 2.46 µM | GI50 (HL-60(TB) leukemia) 1.25 µM | GI50 (HOP-92 NSCLC) 0.66 µM | GI50 (HS 578T breast) 1.8 µM | GI50 (HT29 colon) 1.22 µM | GI50 (IGROV1 ovarian) 2.36 µM | GI50 (M14 melanoma) 2.47 µM | GI50 (MALME-3M melanoma) 1.44 µM | GI50 (MCF7 breast) 0.845 µM | GI50 (MDA-MB-231 breast) 1.74 µM | GI50 (MDA-MB-435 melanoma) 1.61 µM | GI50 (MDA-MB-468 breast) 1.9 µM | GI50 (NCI-H226 lung) 2.12 µM | GI50 (NCI-H23 lung) 0.642 µM | GI50 (NCI-H460 NSCLC) 1 µM | GI50 (NCI-H522 lung) 1.99 µM | GI50 (NCI/ADR-RES ovarian) 14.8 µM | GI50 (OVCAR-3 ovarian) 2.75 µM | GI50 (OVCAR-4 ovarian) 4.1 µM | GI50 (OVCAR-5 ovarian) 1.54 µM | GI50 (OVCAR-8 ovarian) 3.44 µM | GI50 (PC-3 prostate) 2.58 µM | GI50 (SF-268 CNS) 1.31 µM | GI50 (SF-295 CNS) 1.72 µM | GI50 (SF-539 CNS) 2.02 µM | GI50 (SK-MEL-2 melanoma) 1.77 µM | GI50 (SK-MEL-28 melanoma) 2.82 µM | GI50 (SK-OV-3 ovarian) 5.26 µM | GI50 (SNB-75 CNS) 2.21 µM | GI50 (SW-620 colon) 1.69 µM | GI50 (T-47D breast) 3.17 µM | GI50 (U251 glioblastoma) 2 µM | GI50 (UACC-257 melanoma) 1.69 µM | GI50 (UACC-62 melanoma) 1.34 µM
7.32 µM: TGI (SK-MEL-28 melanoma)
3.48 µM: TGI (SW-620 colon)
3.44 µM: TGI (HS 578T breast)
3.76 µM: TGI (NCI-H23 lung)
5.37 µM: TGI (KM12 colon)
4.77 µM: TGI (MCF7 breast)
6.88 µM: TGI (HCT-15 colon)
7.68 µM: TGI (HCC-2998 colon)
5.25 µM: TGI (U251 glioblastoma)
2.51 µM: TGI (HL-60(TB) leukemia)
0.0109 µM: TGI (SR leukemia)
10.2 µM: TGI (IGROV1 ovarian) | TGI (OVCAR-4 ovarian)
0.356 µM: TGI (MOLT-4 leukemia)
8.97 µM: TGI (T-47D breast)
3.08 µM: TGI (MALME-3M melanoma)
4.34 µM: TGI (HCT-116 colon)
3.77 µM: TGI (SF-268 CNS)
4.14 µM: TGI (SNB-75 CNS)
3.94 µM: TGI (COLO 205 colon)
3.88 µM: TGI (A498 renal)
3.5 µM: TGI (786-0 renal)
1.01 µM: TGI (CCRF-CEM leukemia)
active: GI50 (CCRF-CEM leukemia) 0.395 µM | GI50 (KM12 colon) 0.0407 µM | GI50 (MOLT-4 leukemia) 0.181 µM
6.93 µM: TGI (MDA-MB-435 melanoma)
10.3 µM: TGI (OVCAR-8 ovarian)
8.92 µM: TGI (NCI-H226 lung)

O=C1CC(c2ccc(N3CCOCC3)cc2)(c2ccsc2)NC(=O)C1Sc1ccccc1Cl (stereo unspecified)
> 21.3 µM: TGI (786-0 renal)
98.7 µM: TGI (ACHN renal)
18.7 µM: TGI (HOP-92 NSCLC)
65.7 µM: TGI (U251 glioblastoma)
41.5 µM: TGI (NCI/ADR-RES ovarian)
98.5 µM: TGI (NCI-H460 NSCLC)
inactive: GI50 (786-0 renal) 2.71 µM | GI50 (A498 renal) 18.5 µM | GI50 (A549 NSCLC) > 80.4 µM | GI50 (ACHN renal) 33 µM | GI50 (BT-549 breast) 3.71 µM | GI50 (CCRF-CEM leukemia) 3.39 µM | GI50 (COLO 205 colon) > 100 µM | GI50 (EKVX NSCLC) 98.9 µM | GI50 (HCC-2998 colon) > 100 µM | GI50 (HCT-116 colon) 36.8 µM | GI50 (HCT-15 colon) 63 µM | GI50 (HL-60(TB) leukemia) 2.82 µM | GI50 (HOP-92 NSCLC) 3.34 µM | GI50 (HS 578T breast) 1.76 µM | GI50 (HT29 colon) 62.7 µM | GI50 (IGROV1 ovarian) 46.5 µM | GI50 (KM12 colon) > 57.6 µM | GI50 (M14 melanoma) 53.1 µM | GI50 (MALME-3M melanoma) > 51.2 µM | GI50 (MCF7 breast) > 73.7 µM | GI50 (MDA-MB-231 breast) 13.9 µM | GI50 (MDA-MB-435 melanoma) > 100 µM | GI50 (MDA-MB-468 breast) > 100 µM | GI50 (MOLT-4 leukemia) 9.17 µM | GI50 (NCI-H226 lung) 50.3 µM | GI50 (NCI-H23 lung) > 95.8 µM | GI50 (NCI-H460 NSCLC) 9.07 µM | GI50 (NCI-H522 lung) 6.42 µM | GI50 (NCI/ADR-RES ovarian) 19.4 µM | GI50 (OVCAR-3 ovarian) 34.2 µM | GI50 (OVCAR-4 ovarian) 34 µM | GI50 (OVCAR-5 ovarian) 67.7 µM | GI50 (OVCAR-8 ovarian) 3.45 µM | GI50 (PC-3 prostate) 43.6 µM | GI50 (SF-268 CNS) 51.2 µM | GI50 (SF-295 CNS) 35.7 µM | GI50 (SF-539 CNS) 23.3 µM | GI50 (SK-MEL-2 melanoma) > 56.1 µM | GI50 (SK-MEL-28 melanoma) 66.7 µM | GI50 (SK-OV-3 ovarian) > 85.3 µM | GI50 (SNB-75 CNS) > 100 µM | GI50 (SR leukemia) 0.692 µM | GI50 (SW-620 colon) 16.7 µM | GI50 (T-47D breast) 66 µM | GI50 (U251 glioblastoma) 5.73 µM | GI50 (UACC-257 melanoma) > 100 µM | GI50 (UACC-62 melanoma) 12.7 µM
22 µM: TGI (MOLT-4 leukemia)
18.2 µM: TGI (OVCAR-8 ovarian)
28.3 µM: TGI (BT-549 breast)
> 21.9 µM: TGI (CCRF-CEM leukemia)
> 88.7 µM: TGI (A498 renal)
1.74 µM: TGI (SR leukemia)
> 51.8 µM: TGI (SW-620 colon)
> 100 µM: TGI (A549 NSCLC) | TGI (COLO 205 colon) | TGI (EKVX NSCLC) | TGI (HCC-2998 colon) | TGI (HCT-116 colon) | TGI (HCT-15 colon) | TGI (HT29 colon) | TGI (IGROV1 ovarian) | TGI (KM12 colon) | TGI (M14 melanoma) | TGI (MALME-3M melanoma) | TGI (MCF7 breast) | TGI (MDA-MB-231 breast) | TGI (MDA-MB-435 melanoma) | TGI (MDA-MB-468 breast) | TGI (NCI-H226 lung) | TGI (NCI-H23 lung) | TGI (NCI-H522 lung) | TGI (OVCAR-3 ovarian) | TGI (OVCAR-4 ovarian) | TGI (OVCAR-5 ovarian) | TGI (PC-3 prostate) | TGI (SF-268 CNS) | TGI (SF-295 CNS) | TGI (SF-539 CNS) | TGI (SK-MEL-2 melanoma) | TGI (SK-MEL-28 melanoma) | TGI (SK-OV-3 ovarian) | TGI (SNB-75 CNS) | TGI (T-47D breast) | TGI (UACC-257 melanoma) | TGI (UACC-62 melanoma)
3.69 µM: TGI (HS 578T breast)

— PubChem BioAssay (NCI)
